Legend:
[1] = test system: MiaPaca2 pancreatic cancer; test: In vitro cytotoxicity (CellTiter-Blue), MiaPaca2; assay type: cell-based; details: Homo sapiens, MIA PaCa-2; 72 hours of incubation
Method: (§1) The biological activity of the compounds of the invention were studied in vitro on […] human cancer cell lines of different tissular origins: HCT116 colorectal carcinoma; A2780R Cisplatin resistant ovary cancer; MiaPaca2 pancreatic cancer; K562R Doxorubicin resistant chronic myeloid leukaemia; JIM-T1 Trastuzumab-DM1 resistant mammal carcinoma; and HepG2 hepatic carcinoma. The cells selected for this study were incubated at 37° C. in the presence of one of the compounds added to the culture medium at different concentrations. The series of experiments carried out made it possible to determine the degree of toxicity of the compound tested, its effect on cell cycle progression as well as its capacity to induce cell death by apoptosis.
(§2) All the cell lines were maintained in culture at 37° C. in a humid atmosphere containing 5% CO2. Cell viability was evaluated using the reagent CellTiter-Blue™ (Promega, Wis., USA) while respecting the manufacturer's instructions. The cells were seeded in 96 well culture plates at a rate of 5000 cells per […] in 50 μl of culture medium. […] After 2 hours of incubation, the fluorescence emitted was measured at 590 nm after excitation at 560 nm by means of a Victor type fluorescence reader (Perkin-Elmer, USA).

[2] = test system: K562R Doxorubicin resistant chronic myeloid leukaemia; test: In vitro cytotoxicity (CellTiter-Blue), K562R; assay type: cell-based; details: Homo sapiens, K-562R; 72 hours of incubation
Method: as §1, §2

[3] = test system: HCT116 colorectal carcinoma; test: In vitro cytotoxicity (CellTiter-Blue), HCT116; assay type: cell-based; details: Homo sapiens, HCT-116; 72 hours of incubation
Method: as §1
All the cell lines were maintained in culture at 37° C. in a humid atmosphere containing 5% CO2. Cell viability was evaluated using the reagent CellTiter-Blue™ (Promega, Wis., USA) while respecting the manufacturer's instructions. The cells were seeded in 96 well culture plates at a rate of 5000 cells per […] in 50 μl of culture medium. After 24 hours of culture, the compounds of generic formula (I) dissolved in DMSO were added individually to each of the wells at a rate of 50 μl per well. All the compounds were tested in triplicate for each concentration defined and each experiment was repeated 3 times. After 72 hours of incubation, 20 μL of resazurin were added to each well. After 2 hours of incubation, the fluorescence emitted was measured at 590 nm after excitation at 560 nm by means of a Victor type fluorescence reader (Perkin-Elmer, USA).

HCT116 cells [4] = test: Analysis of the cell cycle by flow cytometry; assay type: cell-based, human; details: HCT116, 24 hours of exposure, 5 nM
Method: The HCT116 cells are seeded in 6 well culture plates at a rate of 300,000 cells per well in their respective media described above. After 24 hours of culture, compound 1 was added to each of the wells at different concentrations. After 24 hours of incubation, the cells are collected individually in 15 mL tubes then centrifuged. The cells are next washed twice in cold PBS then re-suspended in 1 mL of PBS, fixed by adding 2 mL of cold absolute ethanol and placed at 4° C. for 1 hour. After centrifugation, the cells are washed twice in PBS then the cell pellet is taken up in 100 μL of 1%. Triton X100. After 30 minutes of incubation at room temperature, 50 μL of RNase A boiled beforehand (1 mg/mL) and 500 μL of propidium iodide (50 μg/mL) are added to each tube and incubated in darkness at room temperature for 30 minutes. The distribution of the number of cells in each of the phases of the cell cycle is next determined by flow cytometry using a FC500 type cytometer (Beckman-Coulter, France).

[5] = test system: A2780R Cisplatin resistant ovary cancer; test: In vitro cytotoxicity (CellTiter-Blue), A2780R; assay type: cell-based; details: Homo sapiens; 72 hours of incubation
Method: as §1, §2

HUVECs = test: Formation of vascular tubes on Matrigel; assay type: cell-based, human; details: 5 hours, 10 nM (non-toxic)
Method: To determine whether compound 1 disrupts the spatial organisation of endothelial cells into structures similar to vascular capillaries, human endothelial cells (HUVECs) were treated immediately after culturing on Matrigel™ or after 24 hours of culture, in order to allow them to form vascular tubes.
The HUVECs (human endothelial cells derived from the umbilical cord) were cultivated in EGM2 culture medium (Promocell, Germany). The cells were maintained in culture at 37° C. in a humid atmosphere containing 5% CO2.
To evaluate the anti-vascular activity of compound 1, the HUVECs were cultured in 96 well culture plates covered beforehand with an extract of extracellular matrix (Matrigel™, BD Biosciences, Le Pont-de-Claix, France) in which they spontaneously form capillary tubes.
Firstly, we measured the capacity of compound 1 to inhibit the formation of the capillary network. Matrigel™ is deposited in the 96 well culture plates at a rate of 70 μL/well and left to incubate at 37° C. for 45 minutes to enable its polymerisation. 20,000 HUVECs are seeded in each of the wells containing Matrigel™ in the absence or in the presence of different concentrations of compound 1, at a rate of 3 wells per concentration. After 2 hours, 3 hours and 5 hours of incubation at 37° C., the cells are observed and photographed using a TE2000 type optical microscope (Nikon, France), equipped with a camera. […]

HCT116 cells [6] = test: Apoptosis, caspase-3/7 activity (Apo-one assay); assay type: cell-based, human; details: HCT116, 24 h treatment, various concentrations
Method: In order to clarify whether compound 1 brings about cell death by apoptosis, the intracellular enzymatic activity of caspases 3 and 7 was evaluated in cultures of HCT116 cells exposed for 24 hours to the action of compound 1.
Apoptosis is measured using the “Apo-one homogeneous caspase-3/7 assay” kit (Promega Co, WI, USA) following the manufacturer's recommendations. Briefly, the cells are seeded in 96 well culture plates at a rate of 50,000 cells per well in 100 μL of culture medium. After 24 hours of incubation, the medium is replaced by 100 μL of culture medium containing different concentrations of compound 1 or 0.1% of DMSO (negative control). After 24 hours of treatment, to each well is added 100 μL of reagent containing the caspase substrate and the buffer for the reaction. After 1 hour incubation, the fluorescence emitted by the cells is measured at 527 nm using a Victor type microplate reader (Perkin-Elmer, USA).

tubulin = test: Tubulin polymerisation inhibition (fluorescence assembly assay); assay type: biochemical, ewe; details: inhibition of 50% of the maximum assembly rate; tubulin 10 μM
Method: The tubulin is purified from ewe brains according to the Shelanski method by 2 assembly-disassembly cycles. The mother solution (15-20 mg/mL), stored at −196° C., is thawed and diluted in the assembly buffer (0.1 M MES, 0.5 mM MgCl2, 1 mM EGTA, and 1 mM GTP, pH 6.6) to have a final concentration of 10 μM. Tubulin assembly is monitored by fluorescence on 96 well plates according to the method of Barron et al. (Anal. Biochem. 315 (2003) 49-56). To the solution of tubulin (10 μM, 100 μL per well) is added the inhibitor (DMSO, 1 μL) and the solution is incubated for 45 min at room temperature. GTP (1 mM final) is next added, the solution is rapidly mixed and the fluorescence (λex=350 nm, λem=440 nm) is measured on a Wallac Victor fluorimeter (Perkin Elmer). The determination of the inhibition of 50% of the maximum assembly rate (IC50) is carried out in duplicate or triplicate over 10 concentrations surrounding the IC50.

[7] = test system: JIM-T1 Trastuzumab-DM1 resistant mammal carcinoma; test: In vitro cytotoxicity (CellTiter-Blue), JIM-T1; assay type: cell-based; details: Homo sapiens, JIMT-1; 72 hours of incubation
Method: as §1, §2

[8] = prior art WO 2008/122620; cited from earlier work

Compound	IC50 [3]	IC50 (tubulin)	other results
Cc1cc(N(C)c2ccc3c(c2)c2ccccc2n3C)c2ccccc2n1 [Compound 1, N,9-Dimethyl-N-(2-methylquinolin-4-yl)-9H-carbazol-3-amine]	0.07 ± 0.09 nM	1130 ± 160 nM	IC50 [1]: 0.47 ± 0.01 nM; IC50 [2]: 0.277 ± 0.017 nM; Effect on cell cycle (HCT116 cells [4]): blocks cellular division in the G2/M phase; IC50 [5]: 0.54 ± 0.094 nM; Number of vascular tubes (HUVECs): very important decrease in the number of vascular tubes; Induction of apoptosis (caspases 3 and 7 activity) (HCT116 cells [6]): strong induction of apoptosis; IC50 [7]: 0.36 ± 0.02 nM
CN(c1ccc2c(c1)c1ccccc1n2C)c1cc(C#N)nc2ccccc12 [Compound 2, 4-(Methyl(9-methyl-9H-carbazol-3-yl)amino)quinoline-2-carbonitrile]	12 ± 0.8 nM	1400 ± 510 nM	–
CN(c1ccc2c(c1)c1ccccc1n2C)c1ccnc2ccccc12 [Compound 4, N,9-Dimethyl-N-(quinolin-4-yl)-9H-carbazol-3-amine]	–	–	melting point: 222.2 to 228.4 °C
Cc1cc(N(C)c2ccc3c(c2)c2ccccc2n3Cc2ccccc2)c2ccccc2n1 [Compound 5, 9-Benzyl-N-methyl-N-(2-methylquinolin-4-yl)-9H-carbazol-3-amine]	–	–	melting point: 192.7 to 196.5 °C
COc1cccc2c(N(C)c3ccc4c(c3)c3ccccc3n4C)cc(C)nc12 [Compound 6, N-(8-Methoxy-2-methylquinolin-4-yl)-N,9-dimethyl-9H-carbazol-3-amine]	21.6 ± 0.71 nM	1480 ± 520 nM	–
Cc1cc(N(C)c2ccc3c(c2)c2ccccc2n3C)c2cc([N+](=O)[O-])ccc2n1 [Compound 7, N,9-Dimethyl-N-(2-methyl-6-nitroquinolin-4-yl)-9H-carbazol-3-amine]	–	–	melting point: 207.6 to 212.4 °C
CCn1c2ccccc2c2cc(N(C)c3cc(C)nc4ccccc34)ccc21 [Compound 8, 9-Ethyl-N-methyl-N-(2-methylquinolin-4-yl)-9H-carbazol-3-amine]	–	–	melting point: 87.4 to 89.6 °C
Cc1nc(N(C)c2ccc3c(c2)c2ccccc2n3C)c2ccccc2n1 [Compound 9, N,9-Dimethyl-N-(2-methylquinazolin-4-yl)-9H-carbazol-3-amine]	2.4 ± 0.2 nM	3800 ± 900 nM	–
CN(c1ccc2c(c1)c1ccccc1n2C)c1nc(Cl)nc2ccccc12 [Compound 10, N-(2-Chloroquinazolin-4-yl)-N,9-dimethyl-9H-carbazol-3-amine]	1.06 ± 0.2 nM	3140 ± 1040 nM	–
Cc1cc(N(C)c2ccc3c(c2)c2cc(N)ccc2n3C)c2ccccc2n1 [Compound 14, N3,9-dimethyl-N3-(2-methylquinolin-4-yl)-9H-carbazole-3,6-diamine]	2.88 ± 1.54 nM	2760 ± 500 nM	–
Cc1cc(N(C)c2ccc3c(c2)c2ccccc2n3C)c2cccc(O)c2n1 [Compound 15, 2-Methyl-4-(methyl(9-methyl-9H-carbazol-3-yl)amino)quinolin-8-ol]	50.6 ± 0.66 nM	1240 ± 400 nM	–
Cc1cc(N(C)c2ccc3c(c2)c2ccccc2n3C)c2cc(N)ccc2n1 [Compound 16, N4,2-Dimethyl-N4-(9-methyl-9H-carbazol-3-yl)quinoline-4,6-diamine]	24.5 ± 1.92 nM	5760 ± 1470 nM	–
CN(c1ccc2c(c1)c1ccccc1n2C)c1cc(Cl)nc2ccccc12 [Compound 17, N-(2-Chloroquinolin-4-yl)-N,9-dimethyl-9H-carbazol-3-amine]	16.7 ± 0.38 nM	1160 ± 310 nM	–
Cc1cc(N(C)c2ccc3c(ccn3C)c2)c2ccccc2n1 [Compound 18, N,2-Dimethyl-N-(1-methyl-1H-indol-5-yl)quinolin-4-amine]	2 ± 0.04 nM	1340 ± 450 nM	–
CN(c1ccc2c(ccn2C)c1)c1cc(C#N)nc2ccccc12 [Compound 19, 4-(Methyl(1-methyl-1H-indol-5-yl)amino)quinoline-2-carbonitrile]	0.72 ± 0.03 nM	2780 ± 1140 nM	melting point: 173.1 to 174.2 °C
CN(c1ccc2c(ccn2C)c1)c1cc(C(F)(F)F)nc2ccccc12 [Compound 20, N-Methyl-N-(1-methyl-1H-indol-5-yl)-2-(trifluoromethyl)quinolin-4-amine]	3.28 ± 0.18 nM	2500 ± 540 nM	–
CN(c1ccc2c(ccn2C)c1)c1nc(Cl)nc2ccccc12 [Compound 21, 2-Chloro-N-methyl-N-(1-methyl-1H-indol-5-yl)quinazolin-4-amine]	0.2 ± 0.01 nM	1190 ± 280 nM	IC50 [1]: 0.62 ± 0.016 nM; IC50 [2]: 1.77 ± 0.162 nM; IC50 [5]: 2.34 ± 0.18 nM; IC50 [7]: 0.52 ± 0.016 nM
C=C(c1ccc(OC)c(O)c1)c1cc(OC)c(OC)c(OC)c1 [isoCA-4, Isocombretastatin A-4]	–	–	Metabolism in the presence of hepatocytes [8]: do not metabolise in the presence of hepatocytes
C=C(c1ccc(OC)c(N)c1)c1cc(OC)c(OC)c(OC)c1 [isoNH2CA-4, isoaminocombretastatin A-4]	–	–	Metabolism in the presence of hepatocytes [8]: do not metabolise in the presence of hepatocytes
